Data from BindingDB's records for doi:10.1002/cbic.201100332 (University of British Columbia, 2011).

Molecular target: T1, Lysosomal acid glucosylceramidase (Homo sapiens, UniProt P04062)
T1 sequence (P04062 whole entry): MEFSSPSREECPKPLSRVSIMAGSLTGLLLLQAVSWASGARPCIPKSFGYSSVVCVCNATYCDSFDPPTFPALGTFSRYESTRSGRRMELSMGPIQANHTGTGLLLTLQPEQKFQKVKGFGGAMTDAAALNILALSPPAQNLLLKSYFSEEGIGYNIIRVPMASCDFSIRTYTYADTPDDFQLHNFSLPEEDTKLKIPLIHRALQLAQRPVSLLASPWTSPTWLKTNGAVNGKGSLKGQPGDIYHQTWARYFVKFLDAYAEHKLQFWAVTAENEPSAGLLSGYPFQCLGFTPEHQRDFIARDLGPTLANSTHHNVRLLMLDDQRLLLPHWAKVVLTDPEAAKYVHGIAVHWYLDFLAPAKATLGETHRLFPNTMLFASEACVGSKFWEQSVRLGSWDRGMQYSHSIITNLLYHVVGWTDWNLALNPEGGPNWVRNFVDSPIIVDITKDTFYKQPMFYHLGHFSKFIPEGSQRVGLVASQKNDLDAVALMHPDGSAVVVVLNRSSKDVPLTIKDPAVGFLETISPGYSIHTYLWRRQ
Assay: Fluorescene-based Assay
Source text: Fluorescene-based assay using beta-glucocerebrosidase.

Ki (pH 5.5) [nM]	Ki (pH 7) [nM]	SMILES
610	210	CCCC1NCC(O)C(O)C1CO (stereo unspecified) [Isofagomine derivative, 6]
600	1400	CCCC1(CCC)NCC(O)C(O)C1CO (stereo unspecified) [Isofagomine derivative, 8]
100	110	OCCCC1NCC(O)C(O)C1CO (stereo unspecified) [Isofagomine derivative, 10]
